Assay results reported in paper PMC5780263 (Xenobiotica; the fate of foreign compounds in biological …, 2017).

Tests used:
CYP2A6 = target: T1, CYP2A6 (Homo sapiens, UniProt P11509); settings: previous studies, ref Shimada et al., 2016a; cited from earlier work
T1 sequence (P11509 1-494): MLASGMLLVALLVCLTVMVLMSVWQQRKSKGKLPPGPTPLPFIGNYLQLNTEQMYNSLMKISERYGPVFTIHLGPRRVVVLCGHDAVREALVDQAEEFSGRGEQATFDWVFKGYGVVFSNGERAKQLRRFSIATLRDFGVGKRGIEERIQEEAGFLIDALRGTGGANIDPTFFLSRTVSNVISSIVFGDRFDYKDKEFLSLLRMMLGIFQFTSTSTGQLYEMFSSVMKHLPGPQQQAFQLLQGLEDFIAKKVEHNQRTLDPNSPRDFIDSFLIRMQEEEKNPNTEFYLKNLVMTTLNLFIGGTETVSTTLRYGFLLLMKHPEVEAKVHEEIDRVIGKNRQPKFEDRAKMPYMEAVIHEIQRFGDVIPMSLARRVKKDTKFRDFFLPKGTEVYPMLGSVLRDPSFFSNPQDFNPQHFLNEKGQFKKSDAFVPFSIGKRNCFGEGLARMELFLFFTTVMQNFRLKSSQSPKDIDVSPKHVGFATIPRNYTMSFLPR

CYP1B1.1 = target: T2, CYP1B1.1 (Homo sapiens, UniProt Q16678); assay type: in vitro ADME; settings: 10 µM substrate, 37 °C, 20 min, HPLC-fluorescence
T2 sequence (Q16678 1-543): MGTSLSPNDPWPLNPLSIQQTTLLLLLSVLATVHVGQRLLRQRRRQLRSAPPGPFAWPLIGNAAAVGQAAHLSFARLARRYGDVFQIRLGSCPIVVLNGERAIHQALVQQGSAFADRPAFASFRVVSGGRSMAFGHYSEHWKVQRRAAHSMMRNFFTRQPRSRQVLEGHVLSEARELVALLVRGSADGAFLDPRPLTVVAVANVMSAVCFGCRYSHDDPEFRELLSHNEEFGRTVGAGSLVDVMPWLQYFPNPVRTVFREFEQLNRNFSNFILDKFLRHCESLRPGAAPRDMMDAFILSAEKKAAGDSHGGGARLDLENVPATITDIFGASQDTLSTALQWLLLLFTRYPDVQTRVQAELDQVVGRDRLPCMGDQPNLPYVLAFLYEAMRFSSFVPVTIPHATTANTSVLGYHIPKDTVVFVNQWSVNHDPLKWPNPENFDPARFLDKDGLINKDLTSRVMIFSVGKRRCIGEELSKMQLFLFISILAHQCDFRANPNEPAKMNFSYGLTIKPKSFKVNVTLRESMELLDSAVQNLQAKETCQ

[1] = system: CYP1A1, 1A2, 1B1.1, 1B1.3, 2D6, 2E1, 2C9, and 3A4; test: Spectral binding titration with other purified human P450 enzymes; settings: authors' assay conditions
CYP1A1 = target: T3, CYP1A1 (Homo sapiens, UniProt P04798); assay type: in vitro ADME; settings: 10 µM substrate, 37 °C, 20 min, HPLC-fluorescence
T3 sequence (P04798 1-512): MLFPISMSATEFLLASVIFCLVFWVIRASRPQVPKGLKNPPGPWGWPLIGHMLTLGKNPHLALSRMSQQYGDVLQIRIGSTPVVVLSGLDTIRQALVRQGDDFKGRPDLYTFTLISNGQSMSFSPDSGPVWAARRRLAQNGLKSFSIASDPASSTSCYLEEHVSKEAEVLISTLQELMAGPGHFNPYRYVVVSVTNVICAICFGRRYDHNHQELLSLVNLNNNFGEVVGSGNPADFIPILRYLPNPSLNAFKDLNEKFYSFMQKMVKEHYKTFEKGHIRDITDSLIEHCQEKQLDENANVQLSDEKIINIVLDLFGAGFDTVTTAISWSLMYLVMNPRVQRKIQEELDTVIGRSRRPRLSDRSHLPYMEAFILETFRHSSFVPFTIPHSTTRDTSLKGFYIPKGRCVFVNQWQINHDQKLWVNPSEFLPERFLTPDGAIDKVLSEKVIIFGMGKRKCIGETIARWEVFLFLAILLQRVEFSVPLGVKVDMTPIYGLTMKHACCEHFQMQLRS

CYP2A13.1 = target: T4, CYP2A13.1 (Homo sapiens, UniProt Q16696); assay type: in vitro ADME; settings: 10 µM substrate, 37 °C, 20 min, b5 added, HPLC-fluorescence
T4 sequence (Q16696 31-494 limits assumed): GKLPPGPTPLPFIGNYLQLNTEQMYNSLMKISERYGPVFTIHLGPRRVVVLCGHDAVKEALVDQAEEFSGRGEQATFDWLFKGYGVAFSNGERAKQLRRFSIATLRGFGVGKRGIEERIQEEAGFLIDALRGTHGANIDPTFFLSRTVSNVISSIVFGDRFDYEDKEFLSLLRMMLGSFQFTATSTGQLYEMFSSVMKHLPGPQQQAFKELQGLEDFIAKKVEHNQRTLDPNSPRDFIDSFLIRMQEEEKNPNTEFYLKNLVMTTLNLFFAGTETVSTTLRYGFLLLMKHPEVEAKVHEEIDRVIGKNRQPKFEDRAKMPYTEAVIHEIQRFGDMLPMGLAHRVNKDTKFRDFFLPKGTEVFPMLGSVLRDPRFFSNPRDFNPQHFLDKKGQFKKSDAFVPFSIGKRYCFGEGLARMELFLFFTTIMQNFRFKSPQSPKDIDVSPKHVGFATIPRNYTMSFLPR

SMILES | Type I binding spectra (CYP2A6) | Hydroxylated products formed (CYP1B1.1) | Spectral changes [1] | Hydroxylated products formed (CYP1A1) | Hydroxylated products formed (CYP2A13.1)
CC(=O)c1ccc2ccc3cccc4ccc1c2c34 [1-acetylpyrene] | do not show detectable Type I binding spectra | – | – | – | –
Clc1ccc2ccc3cccc4ccc1c2c34 [1-chloropyrene] | – | only formed the 6-hydroxy product | did not show any detectable spectral changes | produced 8-, 6-, and 3-hydroxylated products at significant levels | catalyzed hydroxylation at the 8- and 3-positions
O=[N+]([O-])c1ccc2ccc3cccc4ccc1c2c34 [1-nitropyrene] | do not show detectable Type I binding spectra | – | – | – | –
c1cc2ccc3cccc4ccc(c1)c2c34 [pyrene] | do not show detectable Type I binding spectra | – | – | – | –
